Results published in US11780850B2, “Purification of rapamycin derivatives using temperature induced phase separation” (Biosensors International Group, Ltd., priority 2013, dated 2023).

Experiments:
[1] = Photolysis study per ICH Q1B (photostability); conditions: for Major Degradants, % (RT 4.2 min): HPLC RT 4.2 min; for Major Degradants, % (RT 4.5 min): HPLC RT 4.5 min; for Major Degradants, % (RT 4.9 min): HPLC RT 4.9 min; for Major Degradants, % (RT 6.2 min): HPLC RT 6.2 min; for Major Degradants, % (RT 7.9 min): HPLC RT 7.9 min; for Major Degradants, % (RT 10.4 min): HPLC RT 10.4 min; for Major Degradants, % (RT 10.7 min): HPLC RT 10.7 min; for Major Degradants, % (RT 11.0 min): HPLC RT 11.0 min
Method: Photolysis studies were performed on amorphous and crystalline BA9 (i.e, Form I).

[2] = Dark Control, storage at standard laboratory temperature without light; conditions: for Major Degradants, % (RT 4.5 min): HPLC RT 4.5 min; for Major Degradants, % (RT 4.9 min): HPLC RT 4.9 min; for Major Degradants, % (RT 6.2 min): HPLC RT 6.2 min; for Major Degradants, % (RT 10.4 min): HPLC RT 10.4 min; for Major Degradants, % (RT 10.7 min): HPLC RT 10.7 min; for Major Degradants, % (RT 11.0 min): HPLC RT 11.0 min; for Purity Assay, %: standard laboratory temperature, no light, duration of the study
[3] = Oxidation study, exposure to 30% H2O2; assay type: physicochemical; conditions: 30% H2O2 for 3 hours; for weight loss after oxidative degradation (relative to a control sample): assay measurement
Description: It is therefore apparent that amorphous BA9 is more susceptible to oxidative degradation.

[4] = Dynamic vapor sorption (DVS) experiment; assay type: physicochemical
Method: Batch profiling and polymorph screening methods. BA9 Lots 2A and 2B were purified using precipitation from n-hexanes as described above. After the purification process, Lot 2A (82.9 g) was dissolved in methanol (190 g) and precipitated by adding the methanol solution to water. The combined methanolic solution was transferred to an addition funnel and then slowly charged within 1 hour and 15 minutes into vigorously stirred water for injection (2.18 kg) in a reactor at a temperature range of 0-5° C. After completion of the addition of the methanolic solution of BA9, the resulting white suspension was stirred for an additional 15 minutes at the same temperature range. The precipitated BA9 was isolated in 84.8% yield (purity was 96.3% as determined by HPLC). The suspension was then filtered, and the isolated white solid was washed on the filter. Lot 2A was characterized by XRPD and DSC and Lot 2B was characterized by XRPD, DSC, optical microscopy, and infrared (IR) spectroscopy.
A DVS experiment was run on Lot 2B. The increase in mass of the sample was ˜0.5% at 90% RH.

[5] = Photolysis - VIS/UV, minimum 1.2 million lux hours and not less than 200 W·hours/m^2 per ICH Q1B

Compound	Major Degradants, % (RT 4.2 min) ([1]; Photolysis - VIS/UV) [%]	Major Degradants, % (RT 4.5 min) ([1]; Photolysis - VIS/UV) [%]	Major Degradants, % (RT 4.9 min) ([1]; Photolysis - VIS/UV) [%]	Major Degradants, % (RT 6.2 min) ([1]; Photolysis - VIS/UV) [%]	Major Degradants, % (RT 7.9 min) ([1]; Photolysis - VIS/UV) [%]	Major Degradants, % (RT 10.4 min) ([1]; Photolysis - VIS/UV) [%]	Major Degradants, % (RT 10.7 min) ([1]; Photolysis - VIS/UV) [%]	Major Degradants, % (RT 11.0 min) ([1]; Photolysis - VIS/UV) [%]	Purity Assay, % [1, 5] [%]	Purity Assay, % ([1]; T = 0 Control) [%]	Major Degradants, % (RT 4.5 min) [2] [%]	Major Degradants, % (RT 4.9 min) [2] [%]	Major Degradants, % (RT 6.2 min) [2] [%]	Major Degradants, % (RT 10.4 min) [2] [%]	Major Degradants, % (RT 10.7 min) [2] [%]	Major Degradants, % (RT 11.0 min) [2] [%]	Purity Assay, % [2] [%]	weight loss after oxidative degradation (relative to a control sample) [3] [%]	further results
CCOCCOC1CCC(CC(C)C2CC(=O)C(C)C=C(C)C(O)C(OC)C(=O)C(C)CC(C)C=CC=CC=C(C)C(OC)CC3CCC(C)C(O)(O3)C(=O)C(=O)N3CCCCC3C(=O)O2)CC1OC (centres unmarked) [Amorphous BA9, 40-O-(2-ethoxyethyl) rapamycin]	1.30	7.40	1.20	2.50	2.20	1.70	0.94	2.60	16.3	98.0	0.72	0.31	0.20	0.44	1.40	0.39	88.2	6.5	Purity Assay, % ([1]; Photolysis - VIS/UV, minimum 1.2 million lux hours and not less than 200 W·hours/m^2 per ICH Q1B, listed as amorphous BA9): 16.3%; Purity Assay, % ([2]; listed as amorphous BA9): 88.2%
CCOCCOC1CCC(CC(C)C2CC(=O)C(C)C=C(C)C(O)C(OC)C(=O)C(C)CC(C)C=CC=CC=C(C)C(OC)CC3CCC(C)C(O)(O3)C(=O)C(=O)N3CCCCC3C(=O)O2)CC1OC (centres unmarked) [Crystalline BA9, 40-O-(2-ethoxyethyl) rapamycin]	0.76	2.00	2.60	0.94	0.07	0.15	0.69	0.51	70.2	97.7	0.08	0.41	0.09	0.03	0.06	0.67	98.0	3.4	solid form of post DVS sample by XRPD ([4]; after DVS experiment): confirmed as Form I; increase in mass of the sample ([4]; at 90% RH): ~0.5%; Purity Assay, % ([1]; Photolysis - VIS/UV, minimum 1.2 million lux hours and not less than 200 W·hours/m^2 per ICH Q1B, listed as crystalline BA9): 70.2%; Major Degradants, % (RT 4.2 min) ([2]; HPLC RT 4.2 min): 0.01%; Purity Assay, % ([2]; listed as crystalline BA9): 98.0%; levels of major degradants after oxidative degradation (vs amorphous BA9) ([3]; HPLC): lower levels of major degradants overall
